Results as given in PMC3104272 (Journal of medicinal chemistry, 2011).
In brackets after ≈: the same amount, converted by molar mass. Where two headings read alike, the source gives them in different places.

How the values were obtained:
[1] = In vitro metabolic stability, human liver microsomes; type: in vitro ADME; conditions: calculated hepatic extraction ratio
[2] = In vitro metabolic stability, mouse liver microsomes; type: in vitro ADME; conditions: calculated hepatic extraction ratio
[3] = Solubility estimates; type: physicochemical; conditions: for Solubility pH 2.0: 0.01M HCl (approximately pH 2.0)
[4] = target: T1, Falcipain 2 (Plasmodium falciparum, UniProt Q8I6U4); assay: Falcipain 2 inhibition assay; type: biochemical; conditions: averages of duplicate determinations
T1 sequence (Q8I6U4 244-484): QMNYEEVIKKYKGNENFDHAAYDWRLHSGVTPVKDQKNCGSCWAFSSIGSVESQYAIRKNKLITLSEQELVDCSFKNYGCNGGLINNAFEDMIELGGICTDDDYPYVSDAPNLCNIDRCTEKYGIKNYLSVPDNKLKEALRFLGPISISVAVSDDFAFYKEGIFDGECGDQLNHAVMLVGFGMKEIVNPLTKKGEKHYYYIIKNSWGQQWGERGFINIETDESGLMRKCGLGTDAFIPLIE

[5] = NADPH and UDPGA relative to NADPH alone; putative P + 176 metabolite
[6] = tested on: Chinese Hamster Ovarian (mammalian) cell line; conditions: previously reported finding; cited from earlier work
[7] = tested on: Chinese Hamster Ovarian (mammalian) cell line; assay: Cytotoxicity against Chinese Hamster Ovarian cell line; type: cell-based; conditions: highest concentration (100 µM) tested
[8] = tested on: P. falciparum chloroquine sensitive strain D10; assay: In vitro antiplasmodial activity, D10 strain; type: cell-based; conditions: Plasmodium falciparum, D10, read-out: IC50, D10
[9] = tested on: P. falciparum chloroquine resistant strain Dd2; assay: In vitro antiplasmodial activity, Dd2 strain; type: cell-based; conditions: Plasmodium falciparum, DD2, read-out: IC50, Dd2
[10] = tested on: P. falciparum chloroquine resistant strain W2; assay: In vitro antiplasmodial activity, W2 strain; type: cell-based; conditions: Plasmodium falciparum, W2, read-out: IC50, W2

Row | Microsome-Predicted Extraction ratio (EH), Human [1] | Microsome-Predicted Extraction ratio (EH), Mouse [2] | solubility ([3]; phosphate buffer, pH 6.5) [µg/mL] | Falcipain 2 (IC50) [4] | SMILES | Primary glucuronidation [5] | also measured
1 |  |  | 1.6 to 3.1 (≈ 3.43 to 6.65 µM) | relatively low potencies | COc1cc(/C=C/C(C)=O)ccc1OCCN1CCN(c2ccnc3cc(Cl)ccc23)CC1 [Compound 22, 4-(4-{2-[4-(7-Chloro-quinolin-4-yl)-piperazin-1-yl]-ethoxy}-3-methoxy-phenyl)-but-3-en-2-one] | no putative metabolites detected with molecular weights consistent with glucuronidation | 
2 | 0.93 | 0.84 |  | lower micromolar IC50 values | CC(=O)/C=C/c1ccc(O)c(CN2CCN(c3ccnc4cc(Cl)ccc34)CC2)c1 [Compound 26, 4-{3-[4-(7-Chloro-quinolin-4-yl)-piperazin-1-ylmethyl]-4-hydroxy-phenyl}-but-3-en-2-one] |  | 
3 | 0.72 | 0.87 |  | lower micromolar IC50 values | COc1ccc(C(=O)/C=C/c2cc(CN3CCN(c4ccnc5cc(Cl)ccc45)CC3)c(O)c(OC)c2)c(OC)c1 [Compound 25, 3-{3-[4-(7-Chloro-quinolin-4-yl)-piperazin-1-ylmethyl]-4-hydroxy-5-methoxyphenyl}-1-(2,4-dimethoxy-phenyl)-propenone] |  | Cytotoxicity [7]: No cytotoxicity was observed
4 |  |  |  | lower micromolar IC50 values | COc1ccc(C(=O)/C=C/c2ccc(O)c(CN3CCN(c4ccnc5cc(Cl)ccc45)CC3)c2)c(OC)c1 [Compound 27, 3-{3-[4-(7-Chloro-quinolin-4-yl)-piperazin-1-ylmethyl]-4-hydroxy-phenyl}-1-(2,4-dimethoxy-phenyl)-propenone] |  | Cytotoxicity [7]: No cytotoxicity was observed
5 | 0.85 | 0.84 | 1.6 to 3.1 (≈ 3.54 to 6.86 µM) | relatively low potencies | COc1cc(/C=C/C(C)=O)cc(CN2CCN(c3ccnc4cc(Cl)ccc34)CC2)c1O [Compound 24, 4-{3-[4-(7-Chloro-quinolin-4-yl)-piperazin-1-ylmethyl]-4-hydroxy-5-methoxyphenyl}-but-3-en-2-one] |  | 

Continued, compound first:

Row | SMILES | Microsome-Predicted Extraction ratio (EH), Human [1] | Microsome-Predicted Extraction ratio (EH), Mouse [2] | solubility ([3]; phosphate buffer, pH 6.5) [µg/mL] | Falcipain 2 (IC50) [4] | Primary glucuronidation [5] | also measured
6 | COc1ccc(C(=O)/C=C/c2ccc(OCCNc3ccnc4cc(Cl)ccc34)c(OC)c2)c(OC)c1 [Compound 21, 3-{4-[2-(7-Chloro-quinolin-4-ylamino)-ethoxy]-3-methoxy-phenyl}-1-(2,4-dimethoxy-phenyl)-propenone] | 0.85 | 0.86 | 3.1 to 6.3 (≈ 5.97 to 12.1 µM) | lower micromolar IC50 values | no major increase in the rate of degradation | 
7 | COc1ccc(C(=O)/C=C/c2ccc(OCc3cn(-c4ccnc5cc(Cl)ccc45)nn3)c(OC)c2)c(OC)c1 [Compound 8b] |  |  |  | lower micromolar IC50 values | no major increase in the rate of degradation | Solubility pH 2.0 ([3]; 1% DMSO): no increase in solubility under acidic conditions; Cytotoxicity [6]: No cytotoxicity was observed
8 | COc1cc(/C=C/C(C)=O)ccc1OCCNc1ccnc2cc(Cl)ccc12 [Compound 20, 4-{4-[2-(7-Chloro-quinolin-4-ylamino)-ethoxy]-3-methoxy-phenyl}-but-3-en-2-one] | 0.90 | 0.85 | 6.3 to 12.5 (≈ 15.9 to 31.5 µM) | relatively low potencies | no major increase in the rate of degradation | solubility ([3]; 0.01M HCl, pH 2): 50 to 100 µg/mL (≈ 126 to 252 µM); Solubility pH 6.5 ([3]; pH 6.5 phosphate buffer, 1% DMSO): moderate solubility
9 | COc1cc(/C=C/C(C)=O)ccc1OCc1cn(-c2ccnc3cc(Cl)ccc23)nn1 [Compound 12] |  |  | 3.1 to 6.3 (≈ 7.13 to 14.5 µM) |  | no putative metabolites detected with molecular weights consistent with glucuronidation | Solubility pH 2.0 ([3]; 1% DMSO): no increase in solubility under acidic conditions; solubility ([3]; 0.01M HCl, pH 2): 3.1 to 6.3 µg/mL (≈ 7.13 to 14.5 µM)
10 | COc1ccc(C(=O)/C=C/c2ccc(OCCN3CCN(c4ccnc5cc(Cl)ccc45)CC3)c(OC)c2)c(OC)c1 [Compound 23, 3-(4-{2-[4-(7-Chloro-quinolin-4-yl)-piperazin-1-yl]-ethoxy}-3-methoxy-phenyl)-1-(2,4-dimethoxy-phenyl)-propenone] |  |  |  | lower micromolar IC50 values | no major increase in the rate of degradation | 
11 | CCN(CC)CCCC(C)Nc1ccnc2cc(Cl)ccc12 (stereo not drawn) [Chloroquine] |  |  |  |  | no major increase in the rate of degradation | IC50 [8]: 17 nM; IC50 [9]: 97 nM; IC50 [10]: 69 nM
